Measured values taken from US20070154581A1, “Composition and method for enhancing or stimulating the immune system” (priority 2005, published 2007).
In brackets after ≈: the same amount, converted by molar mass. Read-outs that look alike come from different tables or passages of the source.

Columns and labels:
Trypanosoma cruzi = conditions: cited from earlier work
[1] = system: human immunodeficiency virus-infected cell system; conditions: cited from earlier work
[2] = system: phosphatidylcholine biosynthesis; conditions: cited from earlier work
Salmonella typhimurium = conditions: 0.2 to 0.5 mM; cited from earlier work
Escherichia coli = conditions: cited from earlier work
[3] = system: Streptococcus β hemolyticus; conditions: Clinical MDR strain; cited from earlier work
[4] = system: Acetate incorporation into fatty acids of isolated plastids; conditions: read-out: 50% inhibitory concentration (I 50 value); cited from earlier work
Pseudomonas aeruginosa = conditions: cited from earlier work
Leishmania major = conditions: 30 μg/mL; cited from earlier work
[5] = system: methicillin resistant Staphylococcus aureus, multidrug-resistant enterotoxicogenic Escherichia coli, Enterococcus, Shigella dysenteriae, S. flexneni and S. …; conditions: strains resistant to antibiotics; cited from earlier work
[6] = Candida neoformans; cited from earlier work
Entainoeba histolytica = conditions: cited from earlier work
alcohol dehydrogenases = assay: Inhibition of thiol-containing enzymes of the amoeba parasite; format: biochemical
[7] = system: tissue-cultured mammalian cells; conditions: cited from earlier work
[8] = system: trophozoites of E. histolytica; conditions: 5 μg/mL, in vitro; cited from earlier work
Acinetobacter baumanii = conditions: Clinical isolate; cited from earlier work
Enterococcus faecium = conditions: Clinical MDR strain; cited from earlier work
Streptococcus progenies = conditions: Sensitive; cited from earlier work
cysteine proteinases = assay: Inhibition of thiol-containing enzymes of the amoeba parasite; format: biochemical
Leptornonas colosoma = conditions: 30 μg/mL; cited from earlier work
Proteus mirabilis = conditions: cited from earlier work
[9] = target: NADP-dependent alcohol dehydrogenase (Thermoanaerobacter brockii, UniProt P14941); assay: Inhibition of thiol enzymes by allicin; format: biochemical, Thermoanaerobium brockii; conditions: could be reactivated with thiol-containing compounds
Sequence of NADP-dependent alcohol dehydrogenase (P14941 whole entry): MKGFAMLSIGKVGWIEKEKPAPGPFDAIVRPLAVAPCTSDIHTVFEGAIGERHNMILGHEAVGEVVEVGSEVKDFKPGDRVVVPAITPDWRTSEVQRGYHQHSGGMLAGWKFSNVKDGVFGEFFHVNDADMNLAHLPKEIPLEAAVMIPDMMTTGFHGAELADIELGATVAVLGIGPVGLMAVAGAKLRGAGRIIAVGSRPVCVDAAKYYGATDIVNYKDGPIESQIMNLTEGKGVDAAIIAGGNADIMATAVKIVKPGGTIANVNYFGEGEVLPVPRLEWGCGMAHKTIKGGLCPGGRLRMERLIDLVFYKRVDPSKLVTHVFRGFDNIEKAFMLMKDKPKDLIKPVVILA

Candida parapsilosis = conditions: cited from earlier work
[10] = target: T1, NAD-dependent alcohol dehydrogenase (Equus caballus, UniProt P00327); assay: Inhibition of thiol enzymes by allicin; format: biochemical, horse; conditions: could be reactivated with thiol-containing compounds
T1 construct: the NAD-dependent alcohol dehydrogenase from horse liver; from tissue; host or cells: horse liver
T1 sequence (P00327 2-375 limits assumed): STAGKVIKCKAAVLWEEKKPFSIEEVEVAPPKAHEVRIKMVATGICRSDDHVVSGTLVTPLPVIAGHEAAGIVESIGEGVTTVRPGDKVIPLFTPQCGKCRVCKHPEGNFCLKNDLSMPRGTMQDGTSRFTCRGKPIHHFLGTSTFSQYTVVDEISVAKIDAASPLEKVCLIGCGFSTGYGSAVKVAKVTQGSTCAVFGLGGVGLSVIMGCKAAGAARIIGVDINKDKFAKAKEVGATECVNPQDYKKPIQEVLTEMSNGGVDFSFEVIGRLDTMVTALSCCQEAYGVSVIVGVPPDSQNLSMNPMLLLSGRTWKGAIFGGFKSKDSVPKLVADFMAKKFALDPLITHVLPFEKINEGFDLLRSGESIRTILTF

[11] = system: mucoid strains of Pseudomonas aeruginosa, Streptococcus β hemnolyticus and Enterococcus faecium; conditions: cited from earlier work
Giardia lamblia = conditions: 30 μg/mL; cited from earlier work
Candida tropicalis = conditions: cited from earlier work
Candida albicans = conditions: cited from earlier work
Staphylococcus aureus = conditions: cited from earlier work
Torulopsis glabrata = conditions: cited from earlier work
[12] = system: tissue-cultured mammalian cells
Crithidia fasciculata = conditions: 30 μg/mL; cited from earlier work
thioredoxin reductases = assay: Inhibition of thiol-containing enzymes of the amoeba parasite; format: biochemical
thiol-protease papain = thiol-protease papain (Carica papaya, UniProt P00784); assay: Inhibition of thiol enzymes by allicin; format: biochemical; conditions: could be reactivated with thiol-containing compounds
Sequence of thiol-protease papain (P00784 134-345): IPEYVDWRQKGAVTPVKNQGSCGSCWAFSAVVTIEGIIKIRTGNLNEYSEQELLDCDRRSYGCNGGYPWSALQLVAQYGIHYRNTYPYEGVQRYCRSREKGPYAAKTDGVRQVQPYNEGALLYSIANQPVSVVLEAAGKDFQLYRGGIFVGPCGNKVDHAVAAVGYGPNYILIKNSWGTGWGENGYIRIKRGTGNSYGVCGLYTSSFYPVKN

S. fiexneri Y = conditions: rabbit; cited from earlier work
Candida krusei = conditions: cited from earlier work
Klebsiella pneumoniae = conditions: Clinical isolate; cited from earlier work
Candida = conditions: pure allicin; cited from earlier work
[13] = target: acetyl-CoA-forming system, consisting of acetate kinase and phosphotransacetyl-CoA synthetase; conditions: cited from earlier work
[14] = alliin in itself; cited from earlier work

C=CCSSC=CC[S+]([O-])CC=C (mixture of isomers) [ajoene]
proliferation of Trypanosoma cruzi (Trypanosoma cruzi): inhibit the proliferation
integrin-dependent processes [1]: block the integrin-dependent processes
phosphatidylcholine biosynthesis [2]: inhibit phosphatidylcholine biosynthesis

C=CCS[S+]([O-])CC=C (centres unmarked) [allicin]
effect on DNA and protein synthesis (Salmonella typhimurium): partially inhibit
effect on RNA synthesis (Salmonella typhimurium): immediate
Allicin Concentration (LD50 ug/ml) (Escherichia coli; Multidrug resistant MDR): 15 µg/mL
Allicin Concentration (LD50 ug/ml) (Escherichia coli; Sensitive to antibiotics): 15 µg/mL
Allicin Concentration (LD50 ug/ml) [3]: >100 µg/mL
IC50 [4]: < 10 mM
Allicin Concentration (LD50 ug/ml) (Pseudomonas aeruginosa; MDR mucoid strain): >100 µg/mL
Allicin Concentration (LD50 ug/ml) (Pseudomonas aeruginosa; Sensitive to cefprozil): 15 µg/mL
growth inhibition (Leishmania major): very efficiently inhibited
sensitivity to allicin [5]: sensitive
Allicin concentration MIC [6]: 0.3 µg/mL
concentration that totally inhibits the growth of amoeba cultures (Entainoeba histolytica): 30 µg/mL
concentration at which inhibition was observed (alcohol dehydrogenases): > 10 µg/mL
concentration at which some toxicity towards tissue-cultured mammalian cells was observed [7]: above 100 μM
inhibition of virulence of trophozoites [8]: 90%
Allicin Concentration (LD50 ug/ml) (Acinetobacter baumanii): 15 µg/mL
Allicin Concentration (LD50 ug/ml) (Enterococcus faecium): >100 µg/mL
Allicin Concentration (LD50 ug/ml) (Streptococcus progenies): 3 µg/mL
concentration at which inhibition was observed (cysteine proteinases): > 10 µg/mL
growth inhibition (Leptornonas colosoma): very efficiently inhibited
Allicin Concentration (LD50 ug/ml) (Proteus mirabilis; Prloteus marbles, Sensitive): 15 µg/mL
Allicin Concentration (LD50 ug/ml) (Proteus mirabilis; Proteus mirabilis, Clinical MDR strain): >30 µg/mL
inhibition of NADP-dependent alcohol dehydrogenase from Thermoanaerobium brockii [9]: irreversibly inhibited
Allicin concentration MIC (Candida parapsilosis): 0.15 µg/mL
inhibition of NAD-dependent alcohol dehydrogenase from horse liver [10]: irreversibly inhibited
sensitivity to allicin [11]: resistant
growth inhibition (Giardia lamblia): very efficiently inhibited
Allicin concentration MIC (Candida tropicalis): 0.3 µg/mL
Allicin concentration MIC (Candida albicans; Clinical isolates): 0.8 µg/mL
Allicin concentration MIC (Candida albicans): 0.3 µg/mL
Allicin Concentration (LD50 ug/ml) (Staphylococcus aureus; Methicillin resistant): 12 µg/mL
Allicin Concentration (LD50 ug/ml) (Staphylococcus aureus; Sensitive): 12 µg/mL
Allicin concentration MIC (Torulopsis glabrata; Clinical isolates): 1.9 µg/mL
Allicin concentration MIC (Torulopsis glabrata): 0.3 µg/mL
concentration toxic to tissue-cultured mammalian cells [12]: > 100 µg/mL
growth inhibition (Crithidia fasciculata): very efficiently inhibited
concentration at which inhibition was observed (thioredoxin reductases): > 10 µg/mL
inhibition of papain (thiol-protease papain): irreversibly inhibited
antibacterial activity in vivo (S. fiexneri Y): in vivo antibacterial activity
Allicin concentration MIC (Candida krusei): 0.3 µg/mL
Allicin Concentration (LD50 ug/ml) (Klebsiella pneumoniae): 8 µg/mL
minimum inhibitory concentration (Candida): 7 µg/mL (≈ 43.1 µM)
kind of inhibition [13]: noncovalent and reversible

(+)-S-allyl-L-cysteine-sulfoxide [alliin]
antimicrobial activity [14]: no antimicrobial activity
